Test in all cases: cells
Holding throughout (set-up): CellTiter-Glo 2.0 luminescence proliferation/viability assay, single agents, human tumour cell line panel
In general terms: In ATP-based viability assays light output follows the ATP content of the culture.

For one assay, the system named is CL14. The settings on record: 96 h; single agent; read-out: IC50 SMACm. A digest of the protocol:
(§1)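 Human tumour cell lines were seeded into assay plates and held at 37°C with 5% CO2 for twenty-four hours, then exposed in triplicate to rising concentrations of the SMAC mimetic, from 4.5 nM to 10 μM, with DMSO as control. After 96 h, viability was read as CellTiter-Glo2.0 luminescence to derive single-agent IC50 values.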

For a further assay, the system named is SW620. The conditions noted are these: Homo sapiens, SW-620, 96 h; single agent; read-out: IC50 SMACm. A digest of the protocol:
as §1

A further assay relates to HCA24. The settings on record: 96 h; single agent; read-out: IC50 SMACm. A digest of the protocol:
as §1

The next assay concerns COLO-741. The conditions noted are these: Homo sapiens, COLO-741, 96 h; single agent; read-out: IC50 SMACm. A digest of the protocol:
as §1

The next assay relates to SW1417. The settings on record: Homo sapiens, SW1417, 96 h; single agent; read-out: IC50 SMACm. A digest of the protocol:
as §1

A further assay has as its system COLO-201. The settings on record: Homo sapiens, COLO 201, 96 h; single agent; read-out: IC50 SMACm. A digest of the protocol:
as §1

A further assay relates to SK-LU-1. The settings on record: Homo sapiens, SK-LU-1, 96 h; single agent; read-out: IC50 SMACm. A digest of the protocol:
as §1

The test system of a further assay is NCI-SNU-1. The conditions noted are these: 96 h; single agent; read-out: IC50 SMACm. A digest of the protocol: as §1
In the next assay the test system is HCC78. The conditions noted are these: Homo sapiens, HCC78, 96 h; single agent; read-out: IC50 SMACm. A digest of the protocol: as §1
A further assay relates to KM20. The settings on record: 96 h; single agent; read-out: IC50 SMACm. A digest of the protocol:
as §1

Another assay deals with HCC2998. The settings on record: Homo sapiens, HCC 2998, 96 h; single agent; read-out: IC50 SMACm. A digest of the protocol: as §1
The subject of a further assay is HROC374. The settings on record: 96 h; single agent; read-out: IC50 SMACm. A digest of the protocol:
as §1

A further assay has as its system HT-115. The settings on record: HT115, 96 h; single agent; read-out: IC50 SMACm. A digest of the protocol:
as §1

The next assay has as its system NCI-H838. The settings on record: Homo sapiens, NCI-H838, 96 h; single agent; read-out: IC50 SMACm. A digest of the protocol:
as §1

A further assay deals with HCC1588. The conditions noted are these: HCC1588, 96 h; single agent; read-out: IC50 SMACm. A digest of the protocol: as §1

In the case of `CN[C@@H](C)C(=O)Nc1ccc(-c2c(-c3cccnc3OC)nc3cc(C)ccn23)c(C#Cc2ccc3c(C)nccc3c2)n1` [SMACm, BI 891065], the IC50 (usually the concentration at which inhibition is half-maximal) in the assay on CL14 came to 1.91 µM; in the assay on SW620 it was 4.46 µM; with HCA24, 1.73 µM; in the assay on COLO-741, 0.831 µM; with SW1417, 3.9 µM; in the assay with COLO-201, 0.369 µM. Besides, the half-maximal inhibitory concentration (IC50) with SK-LU-1 is 0.495 µM; in the assay on NCI-SNU-1, 6.16 µM; with HCC78, 5.11 µM; with KM20, 5.04 µM; in the assay with HCC2998, 3.06 µM; in the assay on HROC374, 3.34 µM. In addition, the IC50 was 3.87 µM in the assay with HT-115, 4.18 µM in the assay with NCI-H838 and 3.07 µM with HCC1588.

For the origin of these results see article PMC12490239, “Combining BET inhibition with SMAC mimetics restricts tumor growth and triggers immune surveillance in preclinical cancer models” (Cell Reports Medicine, 2025).
